pEC50, pIC50: −log10 of the molar value. “Also recorded” adds a separate entry of the source. Where two headings read alike, the source gives them in different places.
Columns and labels:
[1] = system: MV-4-11 cell line; experiment: Inhibitory activity on proliferation of human-derived MV-4-11 tumor cell line (MTS); assay type: cell-based; conditions: for pIC50: Homo sapiens, MV4-11, 72 h, read-out: IC50, in vitro proliferation of MV-4-11 cell line; for Maximum inhibition: MV-4-11, 72 h
Excerpt: Human-derived acute leukemia cell line MV-4-11 is a cell line having mutation(s) in Flt-3.

[2] = biological target: KDR (VEGF receptor) tyrosine kinase (Homo sapiens, UniProt P35968); experiment: In vitro assay of biochemical activity on KDR tyrosine kinase (HTRF); conditions: read-out: In vitro inhibitory activity on KDR, IC50
Sequence of KDR (VEGF receptor) tyrosine kinase (P35968 20-1356): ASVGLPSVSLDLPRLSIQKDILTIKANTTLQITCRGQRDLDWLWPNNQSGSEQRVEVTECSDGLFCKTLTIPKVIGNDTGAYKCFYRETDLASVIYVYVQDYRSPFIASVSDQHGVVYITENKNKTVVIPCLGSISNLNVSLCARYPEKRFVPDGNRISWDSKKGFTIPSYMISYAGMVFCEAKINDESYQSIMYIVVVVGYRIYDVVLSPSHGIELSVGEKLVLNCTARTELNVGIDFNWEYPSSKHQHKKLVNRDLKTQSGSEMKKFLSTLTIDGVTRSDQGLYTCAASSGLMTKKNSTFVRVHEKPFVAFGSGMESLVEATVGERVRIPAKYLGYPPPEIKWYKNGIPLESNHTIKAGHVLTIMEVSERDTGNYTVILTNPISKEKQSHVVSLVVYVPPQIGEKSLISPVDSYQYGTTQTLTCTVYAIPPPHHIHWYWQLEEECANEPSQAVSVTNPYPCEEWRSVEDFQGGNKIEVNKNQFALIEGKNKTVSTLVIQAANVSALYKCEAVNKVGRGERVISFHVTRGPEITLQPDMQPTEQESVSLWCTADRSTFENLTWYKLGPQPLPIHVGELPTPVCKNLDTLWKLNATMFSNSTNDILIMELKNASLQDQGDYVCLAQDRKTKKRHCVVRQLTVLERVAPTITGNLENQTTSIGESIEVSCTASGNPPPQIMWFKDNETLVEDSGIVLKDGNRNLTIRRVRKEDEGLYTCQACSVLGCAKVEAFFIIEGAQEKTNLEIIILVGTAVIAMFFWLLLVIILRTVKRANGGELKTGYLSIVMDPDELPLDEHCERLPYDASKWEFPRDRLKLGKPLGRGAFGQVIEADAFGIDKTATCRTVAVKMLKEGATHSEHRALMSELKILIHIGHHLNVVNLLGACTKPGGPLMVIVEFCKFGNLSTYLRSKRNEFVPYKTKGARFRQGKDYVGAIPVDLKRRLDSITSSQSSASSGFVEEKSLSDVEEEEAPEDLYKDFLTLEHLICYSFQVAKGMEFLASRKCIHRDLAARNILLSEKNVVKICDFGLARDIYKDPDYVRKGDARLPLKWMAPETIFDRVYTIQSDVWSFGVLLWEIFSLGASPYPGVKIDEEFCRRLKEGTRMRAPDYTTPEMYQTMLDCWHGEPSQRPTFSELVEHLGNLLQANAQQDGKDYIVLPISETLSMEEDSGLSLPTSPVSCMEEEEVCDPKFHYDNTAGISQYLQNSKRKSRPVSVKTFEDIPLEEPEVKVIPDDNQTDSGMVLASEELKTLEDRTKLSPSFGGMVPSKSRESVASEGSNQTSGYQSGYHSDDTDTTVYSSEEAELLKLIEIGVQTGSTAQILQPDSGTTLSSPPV
Procedure: In vitro inhibitory activity of the compounds on KDR (VEGF receptor) tyrosine kinase was assayed by the HTRF (homogeneous time-resolved fluorescence) method. […] 10 μl SA-XL665 and a TK antibody were added to each well, which was incubated at room temperature for 1 h and read with Synergy2.

[3] = system: HUVEC; experiment: Inhibitory activity on VEGF-induced in vitro proliferation of HUVEC (MTS); assay type: cell-based; conditions: Homo sapiens, 72 h, read-out: EC50, activity on VEGF-induced in vitro proliferation of HUVEC
Procedure: Assays for inhibitory activity on VEGF-induced proliferation of Human umbilical veins […] cell (HUVEC) line: HUVECs were cultured in F-12K containing 10% FBS, 18 u/mL heparin and 30 µg/mL ECGS, and HUVECs at 4-8 passages were selected for the experiment. The cells were digested with pancreatin, re-suspended in culture media (1×10^5/mL), and were added to a 96-well plate with 100 μL/well, for overnight adherent culturing. The culture was replaced with an F-12K culture solution containing 5% FBS and the cells were cultured for 24 h. […] A 0.1% FBS F-12K culture solution containing VEGF165 at a final concentration of 30 ng/ml or the vehicle (DMSO) was added and the cells were cultured under induction for 72 h. The culture solution was removed by pipetting, and 120 μL MTS assay solution was added to each well, which was incubated at 37° C. The OD490 was read. The group treated with a 5% FBS F-12K culture solution served as the negative control. VEGF-stimulated growth value was obtained by subtracting the OD of the negative control group from the OD of the VEGF165-stimulated group, and used for calculation of inhibition. A dose-effect curve was drawn using the GraphPad Prism software, and half effective concentration (EC50) was calculated.

[4] = system: HUVEC; experiment: Cytotoxicity to HUVEC (MTS); assay type: cell-based, Human; conditions: for TI = CC50/EC50: HUVEC; for Cytotoxicity to HUVEC compared with sunitinib: in words
Procedure: (§1) Assays for cytotoxicity: the above HUVECs were cultured in an F-12K culture medium containing 10% fetal bovine serum (FBS), 100 U/mL penicillin, 100 µg/mL streptomycin, 30 ug/mL ECGS, and 18 u/mL heparin. The HUVECs growing in the exponential phase were digested with pancreatin, and was adjust to have an appropriate level of cell density by using an F-12K complete medium containing 5% FBS, then 150 μL cells were inoculated into a 96-well plate at 3000 cells/well. […] After the cells were further cultured for 72 h, 20 μL MTS and 1 μL PMS were added to each well. 1-2 hours later, OD490 was measured, with OD650 as a reference. A dose-effect curve was drawn using the GraphPad Prism software, and half cytotoxic concentration (CC50) was calculated. The therapeutic index (TI) of the test compound on HUVECs was calculated as TI=CC50/EC50.

[5] = Cytotoxicity to HUVEC (MTS); assay type: cell-based, Human; conditions: human, HUVEC cells; 72 h
Procedure: as §1

[6] = system: MV-4-11 transplanted tumor; experiment: In vivo inhibition on MV-4-11 transplanted tumor in nude mice; parameters: species or system Balb/c nude mice; conditions: for BW (body weight) D0 / TV (tumor volume) D0: D0, 80 mg/kg intragastric once per day; for BW (body weight) D0 / BW (body weight) D21: in g (unit assumed); for TV (tumor volume) D0 / TV (tumor volume) D21: in mm³; for BW (body weight) D21 / TV (tumor volume) D21: D21, 80 mg/kg intragastric once per day
Procedure: MV-4-11 cells were cultured to proliferate in vitro, and the cells growing in the exponential phase were harvested and re-suspended in a serum-free EMEM culture medium. The cell suspension was subcutaneously injected by a syringe into the axillary cavity of the right forelimb of male Balb/c nude mice. The animals and growth of transplanted tumors were observed regularly. […] During the administration period, the diameter of tumors and body weight (BW) of animals were measured, and the living status of animals was monitored. The experiment was finished 3 weeks after administration, and the animals were sacrificed with CO2 and subjected to autopsy.

[7] = day 21, 80 mg/kg intragastric, in words

pIC50 [1] | pIC50 [2] | Compound | Maximum inhibition [1] [%] | pEC50 ([3]; VEGF165 30 ng/ml) | TI = CC50/EC50 [4] | Cytotoxicity to HUVEC compared with sunitinib [4] | CC50 at 72 h [5] [µM] | pEC50 [3] | BW (body weight) D0 [6] | TV (tumor volume) D0 [6] | BW (body weight) D21 [6] | TV (tumor volume) D21 [6] | Impact on body weight of animals [6, 7] | Impact on body weight of animals ([6]; day 21, 80 mg/kg intragastric, in words, listed as sunitinib) | Effect on tumors [6, 7]
8.10 | 6.85 | Cc1[nH]c(/C=C2\C(=O)Nc3ccc(F)cc32)c(C)c1NC(=O)C1CCCNC1 (stereo not shown) [Compound 12] | 93.1 |  |  |  |  |  |  |  |  |  |  |  | 
 | 7.18 | Cc1[nH]c(/C=C2\C(=O)Nc3ccc(F)cc32)c(C)c1NC(=O)[C@H]1CCCN1C(=O)N(C)C [Compound 8] |  | 7.95 | >1762 | considerably lower than that of sunitinib | > 20 |  |  |  |  |  |  |  | 
 | 6.84 | Cc1[nH]c(/C=C2\C(=O)Nc3ccc(F)cc32)c(C)c1NC(=O)C1CCCN(C(=O)N2CCCC2)C1 (stereo not shown) [Compound 14] |  | 7.88 | >1534 | considerably lower than that of sunitinib | > 20 |  |  |  |  |  |  |  | 
 |  | Cc1[nH]c(/C=C2\C(=O)Nc3ccc(F)cc32)c(C)c1NC(=O)N1CCCCC1 [Comparative compound 1, reference compound] |  | 7.88 | 430 |  | 5.69 |  |  |  |  |  |  |  | 
8.33 | 6.54 | Cc1[nH]c(/C=C2\C(=O)Nc3ccc(F)cc32)c(C)c1NC(=O)C1CCNCC1 [Compound 2] | 92.6 | 7.79 | >1238 | considerably lower than that of sunitinib | > 20 |  |  |  |  |  |  |  | 
7.97 | 7.11 | Cc1[nH]c(/C=C2\C(=O)Nc3ccc(F)cc32)c(C)c1NC(=O)C1CCN(C(=O)N(C)C)CC1 [Compound 3] | 92.1 | 7.86 | >1456 | considerably lower than that of sunitinib | > 20 |  |  |  |  |  |  |  | 
8.19 | 7.11 | Cc1[nH]c(/C=C2\C(=O)Nc3ccc(F)cc32)c(C)c1NC(=O)C1CCCN(C(=O)N(C)C)C1 (stereo not shown) [Compound 13] | 90.2 |  |  | considerably lower than that of sunitinib |  |  |  |  |  |  |  |  | 
 |  | Cc1[nH]c(/C=C2\C(=O)Nc3ccc(F)cc32)c(C)c1NC(=O)N1CCCC1 [Comparative compound 2, reference compound] |  | 7.91 | 567 |  | 6.98 |  |  |  |  |  |  |  | 
7.91 | 7.19 | Cc1[nH]c(/C=C2\C(=O)Nc3ccc(F)cc32)c(C)c1NC(=O)[C@@H]1CCCN1 [Compound 15] | 92.5 | 7.85 | 1247 | considerably lower than that of sunitinib | 17.7 |  |  |  |  |  |  |  | 
8.40 |  | CCN(CC)CCNC(=O)c1c(C)[nH]c(/C=C2\C(=O)Nc3ccc(F)cc32)c1C [Sunitinib, reference compound] | 94.4 |  |  |  | 4.14 | 8.11 | 19.47 ± 0.33 | 242.75 ± 20.58 | 16.02 ± 0.56 | 12.97 ± 2.47 | significantly reduces the body weight | significantly reduced | 
8.27 | 7.05 | Cc1[nH]c(/C=C2\C(=O)Nc3ccc(F)cc32)c(C)c1NC(=O)C1CCCCN1 (stereo not shown) [Compound 9] | 94.3 |  |  |  |  |  |  |  |  |  |  |  | 
8.77 | 6.85 | Cc1[nH]c(/C=C2\C(=O)Nc3ccc(F)cc32)c(C)c1NC(=O)C1CCN(C)CC1 [Compound 5] | 95.0 | 7.73 | >1085 | considerably lower than that of sunitinib | > 20 |  |  |  |  |  |  |  | 
 |  | Cc1[nH]c(/C=C2\C(=O)Nc3ccc(F)cc32)c(C)c1NC(=O)CC1CCNCC1 [Comparative compound 3, reference compound] |  | 7.83 | 550 |  | 8.05 |  |  |  |  |  |  |  | 
7.94 | 7.08 | Cc1[nH]c(/C=C2\C(=O)Nc3ccc(F)cc32)c(C)c1NC(=O)[C@H]1CCCN1 [Compound 6] | 92.4 | 7.87 | 1316 | considerably lower than that of sunitinib | 17.6 |  | 20.42 ± 0.20 | 238.25 ± 13.18 | 21.38 ± 0.37 | 0.00 ± 0.00 | no significant impact on the body weight; also recorded: little impact on the body weight |  | completely disappeared; also recorded: complete disappearance of tumors
 | 7.13 | Cc1[nH]c(/C=C2\C(=O)Nc3ccc(F)cc32)c(C)c1NC(=O)C1CCN(C(=O)N2CCCC2)CC1 [Compound 11] |  | 7.86 | >1436 | considerably lower than that of sunitinib | > 20 |  |  |  |  |  |  |  | 
